Activity calls are given as the source filed them.
Key:
[1] = NIH-3T3 fibroblast cytotoxicity, dose response, cytotoxicity control, cell-based, fluorescence, Alamar Blue, secondary assay (AID 2327); assay type: functional;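 also: NIH-3T3 mouse fibroblasts cultured with fluconazole at 8 µg/mL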
[2] = C. albicans growth with fluconazole, confirmation, fluorescence, retest (AID 2467); assay type: functional, cell-based
[3] = biological target: T1, Serine/threonine-protein phosphatase (Candida dubliniensis (strain CD36 / CBS 7987 / NCPF 3949 / NRRLY-17841) (Yeast), UniProt B9W6M3); assay: calcineurin pathway inhibitors in yeast reporter, dose response, S. cerevisiae, CDRE-lacZ, luminescence, secondary (AID 2388); assay type: functional, cell-based;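 also: yeast reporter cells carrying a calcineurin-responsive lacZ construct stimulated with calcium chloride; luminescent beta-galactosidase reporter signal in whole cells rather than isolated phosphatase activity; potency for inhibition where a drop in reporter signal means calcineurin blockade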
T1 sequence (B9W6M3 whole entry): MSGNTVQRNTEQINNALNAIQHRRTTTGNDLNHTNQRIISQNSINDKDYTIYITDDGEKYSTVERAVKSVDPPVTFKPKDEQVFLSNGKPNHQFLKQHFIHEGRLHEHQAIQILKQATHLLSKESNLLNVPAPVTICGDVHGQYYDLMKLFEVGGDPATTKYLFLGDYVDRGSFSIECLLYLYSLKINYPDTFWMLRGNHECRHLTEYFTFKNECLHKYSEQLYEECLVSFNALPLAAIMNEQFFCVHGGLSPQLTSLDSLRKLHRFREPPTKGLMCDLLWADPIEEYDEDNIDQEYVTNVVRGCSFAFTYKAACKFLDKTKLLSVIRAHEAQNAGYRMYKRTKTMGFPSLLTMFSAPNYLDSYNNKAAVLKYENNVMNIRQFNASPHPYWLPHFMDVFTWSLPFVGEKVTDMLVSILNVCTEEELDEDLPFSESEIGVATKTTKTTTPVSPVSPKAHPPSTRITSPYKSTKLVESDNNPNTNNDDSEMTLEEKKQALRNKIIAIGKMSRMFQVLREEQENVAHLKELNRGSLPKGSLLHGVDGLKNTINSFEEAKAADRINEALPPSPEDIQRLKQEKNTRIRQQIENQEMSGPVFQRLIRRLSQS

[4] = inhibitors of Bluetongue virus cytopathic effect, confirmation, arbovirus, BSR cells (AID 1250); assay type: functional;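 also: protection from viral cytopathic effect measured as cell viability by ATP luminescence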
[5] = biological target: ATP-dependent molecular chaperone HSP82 (Candida albicans (strain WO-1) (Yeast), UniProt C4YTQ8); assay: loss of DOC-induced GRE-beta-galactosidase reporter signal, dose response, Hsp90 inhibitor project, S. cerevisiae, luminescence (AID 2400); assay type: functional, cell-based;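 also: beta-galactosidase luminescence from glucocorticoid response element reporter as proxy for Hsp90 function; inhibitor potency where signal loss means Hsp90 inhibition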
[6] = biological target: Protein Rev (Human immunodeficiency virus type 1 group M subtype B (isolate HXB2)(HIV-1), UniProt P04618); assay: inhibitors of Rev binding to RRE RNA, dose response, biochemical, fluorescence polarization, HIV-1 (AID 434976); parameters: species or system Human immunodeficiency virus 1
[7] = biological target: Female germline-specific tumor suppressor gld-1 (Caenorhabditis elegans, UniProt Q17339); assay: inhibitors of GLD-1 binding to TGE RNA, dose response, biochemical, fluorescence polarization, C. elegans (AID 2802);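 also: fluorescence polarization of labeled TGE RNA bound by purified gld-1 protein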
[8] = biological target: Kallikrein-7 (Homo sapiens, UniProt P49862); assay: Fluorescence Intensity-based biochemical primary high throughput dose response assay to identify activators of kallikrein-7 (K7) zymogen.
[9] = biological target: Melanin-concentrating hormone receptor 1 (Homo sapiens, UniProt Q99705); assay: Late-stage fluorescence-based counterscreen for antagonists of the G-protein coupled receptor 7 (GPR7): cell-based dose response assay to identify antagonists of the melanin-concentrating hormone receptor 1 (MCHR1). [Related pubchem assays (depositor defined):AID1861, AID1880, AID1952, AID2148, AID2251, AID2257, AID485339]; assay type: functional;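 also: stimulated with 30 nM MCH peptide agonist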
[10] = biological target: T2, Leucine aminopeptidase (Plasmodium falciparum 3D7, UniProt Q8IL11); assay: P. falciparum M17LAP inhibitors, primary screen, biochemical, fluorogenic H-Leu-NHMec substrate, 1536-well (AID 1619); assay type: functional
T2 sequence (Q8IL11 whole entry): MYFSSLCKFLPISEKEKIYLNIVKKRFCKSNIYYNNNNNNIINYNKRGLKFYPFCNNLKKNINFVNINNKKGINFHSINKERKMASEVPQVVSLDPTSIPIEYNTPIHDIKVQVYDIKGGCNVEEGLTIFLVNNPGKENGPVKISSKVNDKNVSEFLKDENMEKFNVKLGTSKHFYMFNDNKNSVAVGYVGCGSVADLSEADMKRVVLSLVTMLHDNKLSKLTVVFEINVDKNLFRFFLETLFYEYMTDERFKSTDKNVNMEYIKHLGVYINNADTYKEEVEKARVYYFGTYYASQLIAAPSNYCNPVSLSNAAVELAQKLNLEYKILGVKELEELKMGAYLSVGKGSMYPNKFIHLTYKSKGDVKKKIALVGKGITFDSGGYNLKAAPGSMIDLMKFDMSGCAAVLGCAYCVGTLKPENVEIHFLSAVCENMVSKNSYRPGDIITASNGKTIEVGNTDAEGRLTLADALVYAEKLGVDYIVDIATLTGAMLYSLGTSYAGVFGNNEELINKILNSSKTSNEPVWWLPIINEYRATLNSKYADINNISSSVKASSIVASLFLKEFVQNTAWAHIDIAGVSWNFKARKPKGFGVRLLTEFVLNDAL

[11] = biological target: T3, Estrogen receptor (Homo sapiens, UniProt P03372); assay: potentiators of ERα–SRC-1 coactivator binding, dose response, biochemical, TR-FRET, ERα LBD (AID 737)
T3 sequence (P03372 whole entry): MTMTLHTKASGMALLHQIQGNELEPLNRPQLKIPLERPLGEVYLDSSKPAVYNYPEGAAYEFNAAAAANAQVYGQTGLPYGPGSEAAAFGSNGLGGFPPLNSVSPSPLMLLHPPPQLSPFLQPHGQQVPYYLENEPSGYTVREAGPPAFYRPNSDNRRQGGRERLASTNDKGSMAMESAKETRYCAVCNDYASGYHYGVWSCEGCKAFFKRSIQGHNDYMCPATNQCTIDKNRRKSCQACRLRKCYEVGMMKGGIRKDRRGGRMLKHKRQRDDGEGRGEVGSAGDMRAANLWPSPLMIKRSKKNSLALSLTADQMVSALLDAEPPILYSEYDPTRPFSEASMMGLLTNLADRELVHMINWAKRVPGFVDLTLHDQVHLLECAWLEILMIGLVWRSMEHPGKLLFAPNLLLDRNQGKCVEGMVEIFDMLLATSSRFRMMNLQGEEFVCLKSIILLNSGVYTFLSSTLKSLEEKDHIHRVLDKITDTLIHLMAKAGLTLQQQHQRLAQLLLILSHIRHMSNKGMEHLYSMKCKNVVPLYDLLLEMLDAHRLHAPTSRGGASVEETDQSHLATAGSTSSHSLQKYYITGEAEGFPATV

[12] = biological target: T4, Replicative DNA helicase DnaB (Mycobacterium tuberculosis, UniProt P9WMR3); assay: DnaB intein splicing inhibitors, dose response, biochemical, cell-free fluorescence (AID 449749); assay type: functional
T4 sequence (P9WMR3 whole entry): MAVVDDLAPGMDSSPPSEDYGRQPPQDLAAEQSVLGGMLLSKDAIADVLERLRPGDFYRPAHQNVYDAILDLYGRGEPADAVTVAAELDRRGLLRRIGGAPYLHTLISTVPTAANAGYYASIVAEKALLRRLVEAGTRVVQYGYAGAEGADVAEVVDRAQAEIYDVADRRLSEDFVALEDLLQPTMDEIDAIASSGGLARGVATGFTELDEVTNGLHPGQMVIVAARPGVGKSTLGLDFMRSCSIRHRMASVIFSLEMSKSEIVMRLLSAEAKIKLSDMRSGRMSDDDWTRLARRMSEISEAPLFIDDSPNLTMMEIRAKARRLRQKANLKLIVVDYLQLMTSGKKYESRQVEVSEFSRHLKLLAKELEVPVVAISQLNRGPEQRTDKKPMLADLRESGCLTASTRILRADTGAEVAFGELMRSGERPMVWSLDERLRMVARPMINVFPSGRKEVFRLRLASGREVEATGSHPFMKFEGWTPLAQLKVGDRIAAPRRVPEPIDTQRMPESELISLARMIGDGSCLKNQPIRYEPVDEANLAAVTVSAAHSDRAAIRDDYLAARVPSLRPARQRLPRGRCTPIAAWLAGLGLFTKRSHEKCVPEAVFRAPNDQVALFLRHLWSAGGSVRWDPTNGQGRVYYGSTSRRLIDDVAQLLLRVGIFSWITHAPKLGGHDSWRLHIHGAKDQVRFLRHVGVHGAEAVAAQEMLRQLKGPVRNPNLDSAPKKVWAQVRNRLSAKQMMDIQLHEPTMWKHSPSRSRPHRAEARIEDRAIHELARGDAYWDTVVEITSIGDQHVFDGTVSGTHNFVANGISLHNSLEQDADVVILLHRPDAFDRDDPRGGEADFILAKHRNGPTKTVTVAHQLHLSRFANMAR

[13] = biological target: T5, Protein RecA (Mycobacterium tuberculosis, UniProt P9WHJ3); assay: Fluorescence Cell-Free Homogeneous Dose Retest to Identify Inhibitors of RecA-Intein Splicing Activity. [Related pubchem assays (depositor defined):AID2097, AID2223, AID489010, AID492950]; assay type: functional
T5 sequence (P9WHJ3 whole entry): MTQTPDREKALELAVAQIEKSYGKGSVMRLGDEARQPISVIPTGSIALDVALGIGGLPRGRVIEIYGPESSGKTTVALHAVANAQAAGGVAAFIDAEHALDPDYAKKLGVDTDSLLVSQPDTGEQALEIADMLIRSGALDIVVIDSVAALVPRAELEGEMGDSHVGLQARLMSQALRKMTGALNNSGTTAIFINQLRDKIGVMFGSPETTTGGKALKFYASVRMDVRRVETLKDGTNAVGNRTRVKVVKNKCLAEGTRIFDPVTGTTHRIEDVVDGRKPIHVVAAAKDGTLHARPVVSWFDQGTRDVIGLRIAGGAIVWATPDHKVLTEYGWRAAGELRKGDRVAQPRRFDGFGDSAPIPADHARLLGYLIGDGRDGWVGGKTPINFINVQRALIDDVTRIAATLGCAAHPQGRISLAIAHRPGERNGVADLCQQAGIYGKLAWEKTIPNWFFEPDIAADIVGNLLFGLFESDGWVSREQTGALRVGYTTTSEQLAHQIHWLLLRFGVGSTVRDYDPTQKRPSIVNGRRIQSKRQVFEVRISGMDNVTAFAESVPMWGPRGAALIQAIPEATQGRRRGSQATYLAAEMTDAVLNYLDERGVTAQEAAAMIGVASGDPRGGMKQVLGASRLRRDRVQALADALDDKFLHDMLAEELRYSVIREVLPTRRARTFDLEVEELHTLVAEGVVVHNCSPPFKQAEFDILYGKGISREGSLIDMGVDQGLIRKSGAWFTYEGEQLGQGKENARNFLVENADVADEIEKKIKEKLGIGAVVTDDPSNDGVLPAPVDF

[14] = biological target: Acyl-homoserine lactone acylase PvdQ (Pseudomonas aeruginosa (strain LESB58), UniProt Q9I194); assay: P. aeruginosa PvdQ acylase inhibitors, dose response, biochemical, fluorescence, plate reader and imaging, cherry-picks (AID 493231)
[15] = biological target: T6, Interleukin-8 (Homo sapiens, UniProt P10145); assay: Dose Response confirmation of uHTS small molecule hits for cystic fibrosis induced NFkb Inhibitors in a TNFa-induced IL8 counterscreen.; assay type: functional; settings: read-out: IC50_Mean
T6 sequence (P10145 whole entry): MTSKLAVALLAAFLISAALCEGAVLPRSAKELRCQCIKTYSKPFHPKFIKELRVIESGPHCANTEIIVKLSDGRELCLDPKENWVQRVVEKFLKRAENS

[16] = biological target: T6, Interleukin-8; assay: Dose Response confirmation of uHTS small molecule hits for cystic fibrosis induced NFkb Inhibitors in a PAF-induced IL8 counterscreen.; assay type: functional; settings: read-out: IC50_Mean
[17] = biological target: Cystic fibrosis transmembrane conductance regulator/Golgi-associated PDZ and coiled-coil motif-containing protein (Homo sapiens, UniProt P13569+Q9HD26); assay: CAL PDZ peptide-binding inhibitors, dose response, biochemical, fluorescence polarization, Cerulean-tagged CAL PDZ, cherry-picks (AID 504773)
[18] = biological target: Nonstructural protein 1 (Influenza A virus, UniProt Q194T2); assay type: functional, Influenza A virus (A/California/07/2009(H1N1))
[19] = biological target: Heat shock protein HSP 90-alpha (Homo sapiens, UniProt P07900); assay type: functional, organism-based
[20] = human group III sPLA2 inhibitors, dose response, biochemical, QFRET, IC50 (AID 743457);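 also: green fluorescence rise as the enzyme cleaves BODIPY PC-A2 in liposomes; potency for inhibition of the enzyme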

Protein Rev, sequence (P04618 whole entry): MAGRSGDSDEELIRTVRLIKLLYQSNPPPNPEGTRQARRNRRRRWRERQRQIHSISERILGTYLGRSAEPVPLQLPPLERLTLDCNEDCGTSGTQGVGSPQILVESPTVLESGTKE
Melanin-concentrating hormone receptor 1, sequence (Q99705 whole entry): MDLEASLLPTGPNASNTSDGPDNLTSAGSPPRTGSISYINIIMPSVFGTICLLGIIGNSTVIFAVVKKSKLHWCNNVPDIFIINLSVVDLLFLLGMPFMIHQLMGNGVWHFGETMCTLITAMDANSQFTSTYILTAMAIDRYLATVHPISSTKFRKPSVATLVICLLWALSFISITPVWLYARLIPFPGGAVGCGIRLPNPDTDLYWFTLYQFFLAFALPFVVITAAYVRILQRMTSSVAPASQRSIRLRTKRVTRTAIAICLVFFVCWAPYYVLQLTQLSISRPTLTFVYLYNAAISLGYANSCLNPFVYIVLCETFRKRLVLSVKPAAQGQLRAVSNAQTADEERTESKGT
Female germline-specific tumor suppressor gld-1, sequence (Q17339 whole entry): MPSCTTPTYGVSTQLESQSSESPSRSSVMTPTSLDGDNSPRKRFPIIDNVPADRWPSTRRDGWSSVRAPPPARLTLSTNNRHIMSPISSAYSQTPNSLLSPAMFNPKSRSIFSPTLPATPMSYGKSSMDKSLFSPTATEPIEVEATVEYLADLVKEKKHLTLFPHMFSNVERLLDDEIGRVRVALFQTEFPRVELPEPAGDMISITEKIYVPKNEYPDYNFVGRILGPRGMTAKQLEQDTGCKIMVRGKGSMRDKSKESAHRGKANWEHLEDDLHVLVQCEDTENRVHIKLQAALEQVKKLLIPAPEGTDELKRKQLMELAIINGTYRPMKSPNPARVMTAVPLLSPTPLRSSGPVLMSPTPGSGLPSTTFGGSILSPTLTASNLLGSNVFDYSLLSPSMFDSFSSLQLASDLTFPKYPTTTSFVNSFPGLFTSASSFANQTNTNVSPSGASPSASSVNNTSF
Acyl-homoserine lactone acylase PvdQ, sequence (Q9I194 24-193 limits assumed): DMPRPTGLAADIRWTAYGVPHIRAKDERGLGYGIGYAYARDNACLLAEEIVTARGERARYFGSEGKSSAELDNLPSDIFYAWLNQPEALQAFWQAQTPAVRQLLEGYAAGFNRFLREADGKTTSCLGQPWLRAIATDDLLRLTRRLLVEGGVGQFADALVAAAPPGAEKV
Acyl-homoserine lactone acylase PvdQ, sequence (Q9I194 217-762 limits assumed): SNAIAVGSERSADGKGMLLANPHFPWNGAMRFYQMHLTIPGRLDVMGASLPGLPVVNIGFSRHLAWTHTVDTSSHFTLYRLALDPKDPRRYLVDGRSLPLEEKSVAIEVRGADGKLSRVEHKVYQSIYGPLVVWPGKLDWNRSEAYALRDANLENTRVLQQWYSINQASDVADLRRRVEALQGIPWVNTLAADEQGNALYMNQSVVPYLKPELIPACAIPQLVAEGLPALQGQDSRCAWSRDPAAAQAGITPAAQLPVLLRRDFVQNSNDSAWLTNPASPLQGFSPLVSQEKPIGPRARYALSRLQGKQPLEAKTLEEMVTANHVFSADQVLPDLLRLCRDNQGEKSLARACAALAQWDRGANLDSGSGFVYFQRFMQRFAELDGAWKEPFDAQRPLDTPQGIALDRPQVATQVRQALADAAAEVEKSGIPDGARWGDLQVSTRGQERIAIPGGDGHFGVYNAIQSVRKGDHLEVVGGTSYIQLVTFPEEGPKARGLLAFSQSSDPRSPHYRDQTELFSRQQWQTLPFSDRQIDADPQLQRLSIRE
Kallikrein-7, sequence (P49862 whole entry): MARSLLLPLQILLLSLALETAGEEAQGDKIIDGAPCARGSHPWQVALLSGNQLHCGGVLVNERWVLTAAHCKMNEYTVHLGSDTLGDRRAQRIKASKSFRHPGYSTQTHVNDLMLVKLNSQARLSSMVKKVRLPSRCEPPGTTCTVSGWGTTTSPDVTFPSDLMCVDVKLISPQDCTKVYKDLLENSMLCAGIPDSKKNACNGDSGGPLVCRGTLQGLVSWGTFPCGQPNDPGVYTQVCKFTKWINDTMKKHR
Cystic fibrosis transmembrane conductance regulator/Golgi-associated PDZ and coiled-coil motif-containing protein, sequence (P13569 whole entry, other chains not shown): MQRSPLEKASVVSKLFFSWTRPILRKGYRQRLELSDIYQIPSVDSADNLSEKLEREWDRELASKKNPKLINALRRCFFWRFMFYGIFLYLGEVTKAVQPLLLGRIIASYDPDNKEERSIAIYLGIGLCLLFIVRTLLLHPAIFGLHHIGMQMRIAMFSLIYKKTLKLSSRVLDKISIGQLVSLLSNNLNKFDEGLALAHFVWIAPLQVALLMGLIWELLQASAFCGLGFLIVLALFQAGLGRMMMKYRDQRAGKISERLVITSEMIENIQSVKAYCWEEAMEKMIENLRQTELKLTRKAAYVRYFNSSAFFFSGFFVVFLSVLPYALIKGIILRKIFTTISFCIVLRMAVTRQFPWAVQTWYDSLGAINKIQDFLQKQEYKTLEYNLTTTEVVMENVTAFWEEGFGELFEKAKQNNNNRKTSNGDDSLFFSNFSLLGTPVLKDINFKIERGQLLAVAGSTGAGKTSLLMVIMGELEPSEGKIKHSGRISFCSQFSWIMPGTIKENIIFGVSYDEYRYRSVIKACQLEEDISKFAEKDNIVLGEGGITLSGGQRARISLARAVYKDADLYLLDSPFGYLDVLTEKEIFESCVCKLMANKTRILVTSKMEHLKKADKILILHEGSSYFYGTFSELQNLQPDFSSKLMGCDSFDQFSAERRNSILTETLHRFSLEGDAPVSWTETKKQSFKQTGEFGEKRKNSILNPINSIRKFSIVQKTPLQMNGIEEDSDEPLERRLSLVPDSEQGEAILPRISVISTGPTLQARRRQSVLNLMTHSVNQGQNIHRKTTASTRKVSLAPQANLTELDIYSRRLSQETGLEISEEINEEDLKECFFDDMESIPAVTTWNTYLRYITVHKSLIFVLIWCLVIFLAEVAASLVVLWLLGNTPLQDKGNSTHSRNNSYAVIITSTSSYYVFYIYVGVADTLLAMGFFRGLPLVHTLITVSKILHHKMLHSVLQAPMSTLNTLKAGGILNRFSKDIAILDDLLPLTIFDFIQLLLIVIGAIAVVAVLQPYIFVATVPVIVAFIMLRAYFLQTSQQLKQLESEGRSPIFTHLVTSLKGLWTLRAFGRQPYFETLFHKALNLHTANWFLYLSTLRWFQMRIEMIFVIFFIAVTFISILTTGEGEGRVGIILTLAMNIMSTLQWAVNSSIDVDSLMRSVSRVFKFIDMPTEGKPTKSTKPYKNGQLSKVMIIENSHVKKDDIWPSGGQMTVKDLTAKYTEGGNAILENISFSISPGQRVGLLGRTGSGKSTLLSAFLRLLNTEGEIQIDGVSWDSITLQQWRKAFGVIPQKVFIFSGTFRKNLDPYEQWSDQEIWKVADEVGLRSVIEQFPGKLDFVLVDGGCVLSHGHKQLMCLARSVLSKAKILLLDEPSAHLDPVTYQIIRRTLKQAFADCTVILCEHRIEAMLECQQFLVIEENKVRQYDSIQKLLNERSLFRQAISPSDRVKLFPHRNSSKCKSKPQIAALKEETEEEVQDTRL
ATP-dependent molecular chaperone HSP82, sequence (C4YTQ8 whole entry): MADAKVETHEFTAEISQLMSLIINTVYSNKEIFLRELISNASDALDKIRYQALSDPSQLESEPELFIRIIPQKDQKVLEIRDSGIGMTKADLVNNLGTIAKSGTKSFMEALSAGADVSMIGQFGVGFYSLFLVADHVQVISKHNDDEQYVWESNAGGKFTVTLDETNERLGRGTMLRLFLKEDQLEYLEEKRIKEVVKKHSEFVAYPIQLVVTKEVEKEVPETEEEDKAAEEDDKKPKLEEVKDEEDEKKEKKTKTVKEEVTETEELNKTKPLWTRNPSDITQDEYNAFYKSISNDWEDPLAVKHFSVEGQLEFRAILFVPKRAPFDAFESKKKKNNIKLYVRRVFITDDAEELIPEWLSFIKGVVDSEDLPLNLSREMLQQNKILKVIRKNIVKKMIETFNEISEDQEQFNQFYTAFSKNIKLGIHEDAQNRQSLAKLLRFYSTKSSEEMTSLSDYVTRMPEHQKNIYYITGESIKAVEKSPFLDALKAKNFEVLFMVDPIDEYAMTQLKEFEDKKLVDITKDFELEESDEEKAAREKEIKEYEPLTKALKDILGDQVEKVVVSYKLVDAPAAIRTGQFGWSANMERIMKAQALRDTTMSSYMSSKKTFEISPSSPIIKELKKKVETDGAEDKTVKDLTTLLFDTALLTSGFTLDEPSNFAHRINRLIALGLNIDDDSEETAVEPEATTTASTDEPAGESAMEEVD
Nonstructural protein 1, sequence (Q194T2 whole entry): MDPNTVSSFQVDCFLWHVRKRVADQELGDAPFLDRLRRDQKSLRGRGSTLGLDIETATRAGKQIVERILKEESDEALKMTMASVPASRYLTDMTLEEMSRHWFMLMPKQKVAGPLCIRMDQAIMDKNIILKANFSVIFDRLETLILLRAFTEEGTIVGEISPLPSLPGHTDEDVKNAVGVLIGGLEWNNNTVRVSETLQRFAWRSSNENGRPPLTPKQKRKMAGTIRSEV

Which EC50 [1] does the source give for `Cc1oc2ccc(OC(=O)N(C)C)cc2c1C(=O)OC(C)C` here?
Its EC50 is 137 µM (inconclusive).

What about the EC50 [2] of the same compound?
Its EC50 is 1.34 µM (active).

What about the EC50 [3] of the same compound?
Its EC50 is > 180 µM (inactive).

What about the IC50 [4] of the same compound?
Its IC50 is 35.1 µM (active).

And the EC50 [5]?
Its EC50 is > 160 µM (inactive).

What does the source list for `CC(=O)N1CCN(C2=Nc3cccc4cccc2c34)CC1`?
IC50 [6]: 15.8 µM (not active); IC50 [7]: 7.57 µM (active); EC50 [8]: 36.7 µM (inactive)

Which IC50 [9] does the source give for `CC(C)c1ccc(-n2ncc(Cl)c(Oc3ccc(CO)cc3)c2=O)cc1` here?
The IC50 was 3.7 µM (active).

With `CCOC(=O)c1cc2c(ccn2C)n1CC(=O)N1CCN(c2cccc(C(F)(F)F)c2)CC1` as the compound, how does the IC50 [6] read?
Its IC50 is > 75.4 µM (not active).

And the IC50 [7]?
Its IC50 is > 6.63 µM (active).

With `CCOc1ccccc1C1C(C#N)=C(N)Nc2onc(-c3ccccc3)c21` (stereo not given) as the compound, how does the IC50 [10] read?
Its IC50 is 52.7 µM (active).

What about the EC50 [11] of the same compound?
The EC50 was 17.5 µM (active).

And the AC50 [12]?
Its AC50 is 2.47 µM (active).

And the EC50 [13]?
Its EC50 is 1.39 µM (active).

With `CN(c1ncnc(N)c1[N+](=O)[O-])C1CCCCC1` as the compound, how does the AC50 [14] read?
Its AC50 is 15.3 µM (active).

And the IC50 [15]?
Its IC50 is 46.8 µM (inactive).

And the IC50 [16]?
Its IC50 is 16.9 µM (inactive).

Which IC50 [4] does the source give for `O=C(Nc1sc2c(c1C(=O)O)CCCCC2)c1cccs1` here?
The IC50 was 27.6 µM (active).

Which AC50 [17] does the source give for `CN(C)c1ccc(/C=c2\c3ccccc3n3c2cc(-c2ccccc2)[n+]3C)cc1` here?
The AC50 was 94 µM (active).

And the IC50 [18]?
Its IC50 is 6.8 µM (active).

And the AC50 [19]?
The AC50 was 4.19 µM (active).

And the IC50 [20]?
Its IC50 is 66.8 µM (inactive).

For `Cc1cc(NC(=O)c2c(F)c(F)c(F)c(F)c2F)no1`, which AC50 [14] is on record?
The AC50 was 1.24 µM (active).

With `C=Cc1cnn(-c2ccc(C(C)C)cc2)c(=O)c1Oc1ccc(OC)cc1` as the compound, how does the IC50 [9] read?
Its IC50 is 3.9 µM (active).

From ChEMBL document CHEMBL1201862, “PubChem BioAssay data set” (2004)
